Counter-ions that a name gives are not always drawn.
The compounds below were run against RIPK1 (recombinant GST-RIPK1 kinase domain, residues 1-327) (Homo sapiens (Human), UniProt Q13546) (assay: RIPK1-ADP-Glo Enzymatic Assay). Details: ADP-Glo; 25 nM GST-RIPK1, 300 μM ATP; assay lower limit ~25 nM; read-out: RIPK1 V0 Ec50.
Format: biochemical
How it was run: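 GST-tagged kinase domain (residues 1-327, Sf21-expressed), 25 nM, pre-incubated 30 min with compound at ambient temperature, then reacted 150 min with 300 μM ATP and 3 μM dephosphorylated MBP in HEPES pH 7.3 buffer. ADP measured by ADP-Glo luminescence; EC50 from ten-point titration (top 100000 nM), four-parameter fit.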

RIPK1 (recombinant GST-RIPK1 kinase domain, residues 1-327), sequence (Q13546 1-327): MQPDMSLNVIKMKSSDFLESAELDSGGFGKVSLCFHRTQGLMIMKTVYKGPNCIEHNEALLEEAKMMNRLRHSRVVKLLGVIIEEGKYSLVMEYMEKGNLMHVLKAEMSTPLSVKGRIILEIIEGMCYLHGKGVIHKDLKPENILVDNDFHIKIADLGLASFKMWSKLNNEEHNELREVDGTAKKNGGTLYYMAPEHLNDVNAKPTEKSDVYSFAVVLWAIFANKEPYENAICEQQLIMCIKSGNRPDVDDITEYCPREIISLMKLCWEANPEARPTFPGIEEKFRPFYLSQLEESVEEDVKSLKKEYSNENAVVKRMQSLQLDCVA

Row | Structure (SMILES) | EC50 [nM]
1 | O=C1N2C(=NC13CCN(c1ccnc4c(F)cnn14)CC3)CC[C@H]2c1cc(F)cc(F)c1 [Example 4.79, (S)-5′-(3,5-difluorophenyl)-1-(3-fluoropyrazolo[1,5-a]pyrimidin-7-yl)-6′,7′-dihydro-3′H,5′H-spiro[piperidine-4,2′-pyrrolo[1,2-a]imidazol]-3′-one] | < 25
2 | CC1CC2(CCN1c1ncnc3ccnn13)O[C@@H]1CC[C@@H](c3cc(F)cc(F)c3)N1C2=O (stereo partly drawn) [Example 4.213, (5′S,7a′R)-5′-(3,5-difluorophenyl)-2-methyl-1-(pyrazolo[1,5-a] [1,3,5]triazin-4-yl)tetrahydro-3′H-spiro[piperidine-4,2′-pyrrolo[2,1-b] [1,3]oxazol]-3′-one] | < 25
3 | N#Cc1cc(N2CCC3(CC2)O[C@@H]2CC[C@@H](c4ccccc4)N2C3=O)ccn1 [Example 4.31, 4-[(5′S,7a′R)-3′-oxo-5′-phenyltetrahydro-1H,3′H-spiro[piperidine-4,2′-pyrrolo[2,1-b] [1,3]oxazol]-1-yl]pyridine-2-carbonitrile] | < 25
4 | N#Cc1cnc(N2CCC3(CC2)O[C@@H]2CC[C@@H](c4cccc(F)c4)N2C3=O)c(F)c1 [Example 4.50, 5-fluoro-6-[(5′S,7a′R)-5′-(3-fluorophenyl)-3′-oxotetrahydro-1H,3′H-spiro[piperidine-4,2′-pyrrolo[2,1-b] [1,3]oxazol]-1-yl]pyridine-3-carbonitrile] | 30.7
5 | NC(=O)c1ccc(N2CCC3(CC2)O[C@@H]2CC[C@@H](c4ccccc4)N2C3=O)nc1 [Example 4.199, 6-[(5′S,7a′R)-3′-oxo-5′-phenyltetrahydro-1H,3′H-spiro[piperidine-4,2′-pyrrolo[2,1-b] [1,3]oxazol]-1-yl]pyridine-3-carboxamide] | 36.2
6 | O=C(c1ccccc1)N1CCC2(CC1)O[C@@H]1CC[C@@H](c3ccc(F)cc3F)N1C2=O [Example 17.14, (5′S,7a′R)-1-(benzenecarbonyl)-5′-(2,4-difluorophenyl)tetrahydro-3′H-spiro[piperidine-4,2′-pyrrolo[2,1-b][1,3]oxazol]-3′-one] | < 25
7 | O=C(c1ccc(F)cc1F)N1CCC2(CC1)O[C@@H]1CC[C@@H](c3cc(F)cc(F)c3)N1C2=O [Example 5.5, (5′S,7a′R)-1-(2,4-difluoro-benzene-1-carbonyl)5′-(3,5-difluorophenyl)tetra-hydro-3′H-spiro[piperi-dine-4,2′-pyrrolo[2,1-b] [1,3]oxazol]-3′-one] | < 25
8 | Cc1ccc(C(=O)N2CCC3(CC2)O[C@@H]2CC[C@@H](c4ccccc4)N2C3=O)c(F)c1 [Example 6.152, (5′S,7a′R)-1-(2-fluoro-4-methylbenzene-1-carbonyl)-5′-phenyl-tetrahydro-3′H-spiro [piperidine-4,2′-pyrrolo[2,1-b][1,3]oxazol]-3′-one] | < 25
9 | O=C1N2[C@H](CC13CCN(c1cc(F)ccn1)CC3)OC[C@H]2c1ccccc1 [Example 11.2, (3′R,7a′S)-1-(4-fluoropyridin-2-yl)-3′-phenyltetrahydro-5′H-spiro[piperidine-4,6′-pyrrolo[2,1-b][1,3]oxazol]-5′-one] | 295
10 | O=C(c1ccccc1)N1CCC2(CC1)O[C@@H]1CC[C@@H](c3ccc(F)cc3)N1C2=O [Example 2.8, (5′S,7a′R)-1-benzoyl-5′-(4-fluorophenyl)tetrahydro-3′H-spiro[piperidine-4,2′-pyrrolo[2,1-b]oxazol]-3′-one] | 36.8
11 | O=C1N2[C@@H](CC[C@H]2c2ccccc2)OC12CCN(c1nnc(C(F)(F)F)s1)CC2 [Example 11.27, (5′S,7a′R)-5′-phenyl-1-[5-(trifluoromethyl)-1,3,4-thiadiazol-2-yl]tetrahydro-3′H-spiro[piperidine-4,2′-pyrrolo[2,1-b][1,3]oxazol]-3′-one] | 757
12 | N#Cc1ccc(F)c(C(=O)N2CCC3(CC2)O[C@@H]2CC[C@@H](c4ccccc4)N2C3=O)c1 [Example 6.148] | < 25
13 | O=C1N2[C@H](OC13CCN(c1ccnc4ccnn14)CC3)[C@@H](O)C[C@H]2c1ccccc1 [Example 4.251, (5′S,7′S,7a′R)-7′-hydroxy-5′-phenyl-1-(pyrazolo [1,5-a]pyrimidin-7-yl)tetrahydro-3′H-spiro[piperidine-4,2′-pyrrolo[2,1-b] [1,3]oxazol]-3′-one] | < 25
14 | N#Cc1cccc(C(=O)N2CCC3(CC2)O[C@@H]2CC[C@@H](c4cc(F)cc(F)c4)N2C3=O)c1F [Example 6.33, 3-[(5′S,7a′R)-5′-(3,5-difluorophenyl)-3′-oxotetrahydro-1H,3′H-spiro[piperidine-4,2′-pyrrolo[2,1-b][1,3]oxazole]-1-carbonyl]-2-fluorobenzonitrile] | 40.2
15 | N#Cc1cc(N2CCC3(CC2)SC2CCC(c4cc(F)cc(F)c4)N2C3=O)ncn1 (centres unmarked) [Example 4.111, 6-(5′-(3,5-difluorophenyl)-3′-oxotetrahydro-3′H-spiro[piperidine-4,2′-pyrrolo[2,1-b]thiazol]-1-yl)pyrimidine-4-carbonitrile] | 38.1
16 | COc1ccc(C(=O)N2CCC3(CC2)O[C@@H]2CC[C@@H](c4cc(F)cc(F)c4)N2C3=O)c(F)c1 [Example 5.58, (5′S,7a′R)-5′-(3,5-difluoro-phenyl)-1-(2-fluoro-4-methoxybenzoyl)tetra-hydro-3′H-spiro[piperidine-4,2′-pyrrolo[2,1-b]oxazol]-3'-one] | 24.8
17 | Cc1nc(N2CCC3(CC2)O[C@@H]2CC[C@@H](c4ccccc4)N2C3=O)ncc1-c1ncnn1C [Example 21.7, (5′S,7a′R)-1-[4-methyl-5-(1-methyl-1H-1,2,4-triazol-5-yl)pyrimidin-2-yl]-5′-phenyltetrahydro-3′H-spiro[piperidine-4,2′-pyrrolo[2,1-b][1,3]oxazol]-3′-one] | 181
18 | Cc1cccc(C(=O)N2CCC3(CC2)O[C@@H]2CC[C@@H](c4cc(F)cc(F)c4)N2C3=O)n1 [Example 6.13, (5′S,7a′R)-5′-(3,5-difluorophenyl)-1-(6-methylpyridine-2-carbonyl)tetrahydro-3′H-spiro[piperidine-4,2′-pyrrolo[2,1-b] [1,3]oxazol]-3′-one] | 60
19 | Cc1nocc1C(=O)N1CCC2(CC1)O[C@@H]1CC[C@@H](c3cc(F)cc(F)c3)N1C2=O [Example 5.33, (5′S,7a′R)-5′-(3,5-difluoro-phenyl)-1-(3-methylisoxa-zole-4-carbonyl)tetrahydro-3′H-spiro[piperidine-4,2′-pyrrolo[2,1-b]oxazol]-3′-one] | 189
20 | O=C1N2[C@@H](CC[C@H]2c2cc(F)cc(F)c2)OC12CCN(c1nnc3cccnn13)CC2 [Example 13.9, (5′S,7a′R)-1-([1,2,4]triazolo[4,3-b]pyridazin-3-yl)-5′-(3,5-difluorophenyl)tetrahydro-3′H-spiro[piperidine-4,2′-pyrrolo[2,1-b]oxazol]-3′-one, TFA salt] | 339
21 | O=C1N2C(CCC2c2cccc(F)c2F)OC12CCN(c1ccnc3ccnn13)CC2 (centres unmarked) [Example 20.7, 5′-(2,3-difluorophenyl)-1-(pyrazolo[1,5-a]pyrimidin-7-yl)tetrahydro-3′H-spiro[piperidine-4,2′-pyrrolo[2,1-b][1,3]oxazol]-3′-one] | < 25
22 | O=C1N2[C@@H](CO[C@H]2c2cc(F)cc(F)c2)CC12CCN(c1ccnc3ccnn13)CC2 (stereo in doubt) [Example 4.147, 3′-(3,5-difluorophenyl)-1-(pyrazolo[1,5-a]pyrimidin-7-yl)dihydro-1′H,3′H,5′H-spiro[piperidine-4,6′-pyrrolo[1,2-c] [1,3]oxazol]-5′-one] | < 25
23 | O=C1N2C(CCC2c2cc(F)cc(F)c2)OC12CCN(c1cc(F)ccn1)CC2 (centres unmarked) [Example 4.3, 5′-(3,5-difluorophenyl)-1-(4-fluoropyridin-2-yl)tetrahydro-3′H-spiro[piperidine-4,2′-pyrrolo[2,1-b] [1,3]oxazol]-3′-one] | < 25
24 | O=C(c1cccc(C2CC2)c1)N1CCC2(CC1)O[C@@H]1CC[C@@H](c3cccc(F)c3)N1C2=O [Example 6.118, (5′S,7a′R)-1-(3-cyclopropylbenzene-1-carbonyl)-5′-(3-fluorophenyl)tetra-hydro-3′H-spiro [piperidine-4,2′-pyrrolo[2,1-b][1,3]oxazol]-3′-one] | < 25
25 | O=C1N2[C@@H](CC[C@H]2c2cc(F)cc(F)c2)OC12CCN(c1cccc3ccnn13)CC2 [Example 15.2, (5′S,7a′R)-5′-(3,5-difluorophenyl)-1-(pyrazolo[1,5-a]pyridin-7-yl)tetrahydro-3′H-spiro[piperidine-4,2′-pyrrolo[2,1-b]oxazol]-3′-one, TFA] | < 25
26 | O=C1N2[C@@H](CC[C@H]2c2ccccc2)OC12CCN(c1ccc(OC3CCC3)nn1)CC2 [Example 11.9, (5′S,7a′R)-1-[6-(cyclobutyloxy)pyridazin-3-yl]-5′-phenyltetrahydro-3′H-spiro[piperidine-4,2′-pyrrolo[2,1-b][1,3]oxazol]-3′-one] | 907
27 | O=C1N2[C@@H](CC[C@H]2c2ccccc2F)OC12CCN(c1ccnc(-c3cnn(C(F)F)c3)c1)CC2 [Example 10.4, (5′S,7a′R)-1-{2-[1-(difluoromethyl)-1H-pyrazol-4-yl]pyridin-4-yl}-5′-(2-fluorophenyl)tetrahydro-3′H-spiro[piperidine-4,2′-pyrrolo[2,1-b][1,3]oxazol]-3′-one] | < 25
28 | O=C1N2[C@@H](CC[C@H]2c2cc(F)cc(F)c2)OC12CCN(c1ccnc(C(F)F)n1)CC2 [Example 4.9, (5′S,7a′R)-1-[2-(difluoromethyl)pyrimidin-4-yl]-5′-(3,5-difluorophenyl)tetrahydro-3′H-spiro[piperidine-4,2′-pyrrolo[2,1-b] [1,3]oxazol]-3′-one] | < 25
29 | Cc1ccccc1[C@@H]1CC[C@H]2OC3(CCN(c4ccnc5c(F)cnn45)CC3)C(=O)N21 [Example 4.255, (5′S,7a′R)-1-(3-fluoropyrazolo[1,5-a]pyrimidin-7-yl)-5′-(2-methylphenyl)tetrahydro-3′H-spiro[piperidine-4,2′-pyrrolo[2,1-b] [1,3]oxazol]-3′-one] | 40.3
